{"source": "patent US7517998B2", "about": "“Non nucleoside reverse transcriptase inhibitors” (priority 2004, dated 2009)"}
{"biological_target": "T1, K103NNY181C mutant reverse transcriptase (Human immunodeficiency virus type 1 group M subtype B, UniProt P04585, K690N/Y768C)", "T1 construct": "mutations that occur in the reverse transcriptase segment of the pol gene", "test": "Reverse transcriptase enzymatic assay (PicoGreen), K103N/Y181C mutant RT", "type": "biochemical, HIV-1", "conditions": "IC50 mut (nM), mutant (K103N/Y181C) reverse transcriptase, enzymatic assay of Example 24", "experimental": "(§1) The enzymatic assay employed is described as follows: The reverse transcriptase (RT) enzyme assay has been adapted to a 96-well microtiter plate format and uses PicoGreen™ as a fluorescent intercalator. More explicitly, the HIV-1 RT enzyme was thawed and appropriately diluted into Tris/HCl 50 mM pH 7.8 containing NaCl 60 mM, MgCl2.6H2O 2 mM, DTT 6 mM, GSH 2 mM and 0.02% w/v Chaps to give ≈10 nM enzyme. To 10 μL of this enzyme solution was added 10 μL of inhibitor solution (40 μM to 2.032 nM inhibitor in the same assay buffer as above containing 4% v/v DMSO). The plate was pre-incubated for 15 minutes at room temperature before proceeding to the next step. In this pre-incubation step, the highest and lowest inhibitor concentrations were 20 μM and 1.016 nM respectively and the concentration of DMSO was 2% v/v. Then the enzymatic reaction was initiated by addition of 20 μL of substrate solution. The final reaction mixture contained Tris/HCl 50 mM pH 7.8, NaCl 60 mM, MgCl2.6H2O 2 mM, DTT 6 mM, GSH 2 mM, CHAPS 0.02% w/v, DMSO 1% v/v, poly rC 45 nM, dG15 4.5 nM, dGTP 3.6 μM, and 2.5 nM enzyme. In this incubation step, the highest and lowest inhibitor concentrations were 10 μM and 0.508 nM respectively. After addition of the substrate cocktail, the plate was covered with a plastic seal and incubated for 50 minutes at 37° C. in a dry incubator. The reaction was then quenched by addition of 5 μL of EDTA 0.5 M. The plate was shaken for 30 seconds at medium speed and incubated for 5 minutes at room temperature. Then 160 μL of PicoGreen™ 1:400 dilution from commercial stock (diluted in Tris 20 mM pH 7.5 with EDTA 1 mM) was added and the plate was shaken for 30 seconds and incubated for 10 minutes at room temperature. The plate was then analyzed using a POLARstar Galaxy fluorometer (BMG Labtechnologies) with λex and λem of 485 nm and 520 nm respectively. Each well was read for 1.25 second. Each row contained at its extremities a blank and a control well.", "units": {"IC50": "nM"}}
{"smiles": "COc1ccccc1CC(=O)Nc1ccc(NC(=O)CSc2nnnn2-c2ccc(C(C)(C)C)cc2Cl)c(Cl)c1", "note": "[Compound 7018]", "IC50": 100}
{"smiles": "COc1cccc(CC(=O)Nc2ccc(NC(=O)CSc3nnnn3-c3ccc(C(C)(C)C)cc3Cl)c(Cl)c2)c1", "note": "[Compound 7016]", "IC50": 145}
{"biological_target": "T1, K103NNY181C mutant reverse transcriptase", "test": "Reverse transcriptase enzymatic assay (PicoGreen), K103N/Y181C mutant RT", "type": "biochemical, HIV-1", "conditions": "IC50 mut, K103N/Y181C mutant reverse transcriptase, enzymatic assay of Example 24", "experimental": "as §1", "units": {"IC50": "nM"}}
{"smiles": "CC(C)(C#Cc1ccc(NC(=O)CSc2nnnn2-c2cc(C3CC3)ccc2Cl)c(Cl)c1)C(=O)O", "note": "[Compound 4174]", "IC50": 34}
{"smiles": "CC(C)(C#Cc1ccc(NC(=O)CSc2nnnn2-c2ccc(C(C)(C)C)cc2Cl)c(Cl)c1)OCC(=O)NCc1ccco1", "note": "[Compound 4037]", "IC50": 66}
{"smiles": "CC(C)(C#Cc1ccc(NC(=O)CSc2nnnn2-c2ccc(C3CC3)cc2Cl)c(Cl)c1)NCC(N)=O", "note": "[Compound 4231]", "IC50": 16}
{"smiles": "CC(C)c1ccc(-n2nnnc2SCC(=O)Nc2ccc(C#CC(C)(C)C(=O)O)cc2Cl)c(Cl)c1", "note": "[Compound 4121]", "IC50": 33.5}
{"smiles": "CC(C)(C#Cc1ccc(NC(=O)CSc2nnnn2-c2ccc(C3CC3)cc2Cl)c(Cl)c1)NC(=O)c1ccccc1", "note": "[Compound 4106]", "IC50": 19}
{"smiles": "CC(C)(C)c1ccc(-n2nnnc2SCC(=O)Nc2ccc(C#CC3CC3)cc2Cl)c(Cl)c1", "note": "[Compound 4032]", "IC50": 39}
{"smiles": "O=C(CSc1nnnn1-c1ccc(C2CC2)cc1Cl)Nc1ccc(C#CCCN2CCNCC2)cc1Cl", "note": "[Compound 4135]", "IC50": 29}
{"smiles": "CC(C)(C#Cc1ccc(NC(=O)CSc2nnnn2-c2ccc(C3CC3)cc2Cl)c(Cl)c1)NCc1cc[n+]([O-])cc1", "note": "[Compound 4186]", "IC50": 12}
{"smiles": "CN(C)CCCC(=O)NC(C)(C)C#Cc1ccc(NC(=O)CSc2nnnn2-c2cc(C(F)(F)F)ccc2Cl)c(Cl)c1F", "note": "[Compound 4170]", "IC50": 33.5}
{"smiles": "CC(C)(C)c1ccc(-n2nnnc2SCC(=O)Nc2ccc(C#CCN3CCCCC3)cc2Cl)c(Cl)c1", "note": "[Compound 4014]", "IC50": 88}
{"smiles": "CC(C)(C#Cc1ccc(NC(=O)CSc2nnnn2-c2cc(C(F)(F)F)cc(C3CC3)c2Cl)c(Cl)c1)OCCN1CCC(F)(F)C1", "note": "[Compound 4242]", "IC50": 854}
{"smiles": "CN1CCN(CCOC(C)(C)C#Cc2ccc(NC(=O)CSc3nnnn3-c3ccc(C4CC4)cc3Cl)c(Cl)c2)CC1", "note": "[Compound 4105]", "IC50": 66.5}
{"smiles": "CC(C)(C#Cc1ccc(NC(=O)CSc2nnnn2-c2ccc(C(C)(C)C)cc2Cl)c(Cl)c1)OCC(=O)Nc1ccncc1", "note": "[Compound 4041]", "IC50": 35}
{"biological_target": "T1, K103NNY181C mutant reverse transcriptase", "test": "Reverse transcriptase enzymatic assay (PicoGreen), K103N/Y181C mutant RT", "type": "biochemical, HIV-1", "conditions": "IC50 mut, mutant reverse transcriptase, enzymatic assay of Example 24", "experimental": "as §1", "units": {"IC50": "nM"}}
{"smiles": "Cc1ccc(-n2nnnc2SCC(=O)Nc2ccc(-c3ccc(CC(=O)O)cc3)cc2[N+](=O)[O-])c(Cl)c1", "note": "[Compound 2011]", "IC50": 49}
{"smiles": "CC(C)c1ccc(-n2nnnc2SCC(=O)Nc2ccc(-c3ccc(C(C)(C)C(=O)O)cc3)cc2Cl)c(Cl)c1", "note": "[Compound 2055]", "IC50": 56}
{"smiles": "Cc1ccc(-n2nnnc2SCC(=O)Nc2ccc(-c3cccc(C(=O)O)c3)cc2Cl)c(Cl)c1", "note": "[Compound 3003]", "IC50": 241}
{"smiles": "Cc1nnc(SCC(=O)Nc2ccc(-c3ccc(OCCN4CCCC4)cc3)cc2Cl)n1-c1ccc(C2CC2)cc1Cl", "note": "[Compound 1014]", "IC50": 81}
{"smiles": "CC(C)(C)c1ccc(-n2nnnc2SCC(=O)Nc2ccc(OCC(=O)Nc3cccc(C(=O)O)c3)cc2Cl)c(Cl)c1", "note": "[Compound 5022]", "IC50": 106}
{"smiles": "CC(C)(C#Cc1ccc(NC(=O)CSc2nnc(C(F)(F)F)n2-c2ccc(C3CC3)cc2Cl)c(Cl)c1)NC(=O)c1cc[n+]([O-])cc1", "note": "[Compound 1018]", "IC50": 51}
{"smiles": "CC(C)(C)c1ccc(-n2nnnc2SCC(=O)Nc2ccc(C(=O)Nc3cccc(C(=O)O)c3)cc2Cl)c(Cl)c1", "note": "[Compound 6021]", "IC50": 58}
{"smiles": "O=C(O)Cc1ccc(-c2ccc(NC(=O)CSc3nnnn3-c3ccc(OC(F)(F)F)cc3Cl)c(Cl)c2)cc1", "note": "[Compound 2034]", "IC50": 178}
{"smiles": "CC(C)(C)c1ccc(-n2nnnc2SCC(=O)Nc2ccc(OCCN3CCOCC3)cc2Cl)c(Cl)c1", "note": "[Compound 3034]", "IC50": 111}
{"smiles": "O=C(CSc1nnnn1-c1ccc(C2CC2)cc1Cl)Nc1ccc(-c2ccc(OCCN3CCCCC3)cc2)c(F)c1Cl", "note": "[Compound 2051]", "IC50": 30.5}
{"smiles": "CC(C)(C)c1ccc(-n2nnnc2SCC(=O)Nc2ccc(C(=O)NCc3ccc(N)cc3)cc2Cl)c(Cl)c1", "note": "[Compound 6026]", "IC50": 51}
